# Test results reported in patent publication US12188050B2, “Kidney organoids and methods of manufacturing” (MURDOCH CHILDRENS RESEARCH INSTITUTE, priority 2017, dated 2025).
# “Also recorded” adds a separate entry of the source.
# What was measured:
# Type in all cases: cell-based, human
# [1] = system: intermediate mesoderm (IM) cells differentiated from hPSCs or hES; experiment: qPCR gene expression profiling of intermediate mesoderm at D7+0, FGF9 +/- 1 μM CHIR99021; details: low concentration CHIR (1 μM) days 5 to 7 with FGF9 and heparin; qPCR at D7+0
# From the text: FIG. 1. Generation of kidney micro-organoids in suspension culture. (A) Outline of the kidney micro-organoid differentiation protocol with images from a differentiation performed using CRL1502.C32 cells. (B) Bright field images showing uniform kidney micro-organoids on Day 7+18 (scale […]). (C, D1 and D2) Immunofluorescence and confocal images of micro-organoids showing formation of nephron segments independent of micro-organoid size and shape, including development of vascular structures (scale […]). (E) Bar graphs showing average fold change for intermediate mesoderm gene expression profiling by qPCR on Day 7+0 for FGF9+/−1 μM CHIR99021. The data represented as Mean, (F) Immunofluorescence for PAX2 for FGF9+/−1 μM CHIR99021 treatment (scale 50 μm) (D7+11). (G) Immunofluorescence and confocal images of nephron compartments within kidney micro-organoids; podocytes (NPHS1+ and MAFB+), proximal tubules (LTL+, CUBN+, LRP2+ and HNF4A+), distal tubules (ECAD), collecting duct (ECAD+ GATA3+) and endothelial cells (SOX17+ and PECAM1+) (scale 50 μm).
# hPSCs or hES were differentiated into intermediate mesoderm by exposing cells to high concentration of CHIR (7 μM) for the first 4 days in APEL™ 2 or TeSR™-E6 media (Stem cell technologies) media with 3.5% protein free hybridoma media (PFHM) (Thermo Fischer), APEL™ (Stem cell technologies) or E6 media (Stem cell technologies). […]
# [2] = system: kidney organoids from monolayers of hPSC; experiment: Effect of duration of initial 7 μM CHIR99021 on kidney organoid patterning (confocal microscopy); details: then low CHIR and FGF9+heparin to Day 7
# Procedure: FIG. 2. […] (A) Confocal image of micro-kidney organoid tubules on Day 7+18 showing FITC albumin uptake (scale 5 μm). (B) Confocal images of micro-kidney organoids generated using 4 different cell lines, including hES (H9 GAP-Trap Luc2, hES3 SOX17mCherry) and iPS (CRL1502.C32 and CRL1502.3) on Day 7+18 with antibodies labelling different nephron segments (scale 50 μm). (C, D and E) hES3 SOX17mCherry derived micro-organoids generated after exposure to different days of initial 7 μM CHIR99021 for 3, 4, 5 and 6 days treatment showing bright field (C, scale 100 μm) and immunofluorescence confocal images showing SOX17+ vasculature (D) and MEIS1/2/3+ stroma (E) (scale 100 μm).
# To optimise differentiation within the kidney organoid protocol, monolayers of hPSC were stimulated using a fixed concentration of CHIR99021 (7 μM) for varying durations (3, 4, 5 and 6 days) before continued culture to Day 7 in the presence of low CHIR and FGF9+heparin (FIGS. 2C, 2D and 2E). After 18 days, resulting kidney organoids were evaluated for kidney structure using confocal microscopy (FIGS. 2C, 2D and 2E). […] 4 days of initial 7 μM CHIR99021 induction was confirmed as optimal and used in further studies.
# [3] = system: C32 derived swirler kidney organoids; experiment: Glomerular podocyte maturation in swirler organoids with atRA (immunofluorescence, qPCR)
# From the text: FIG. 7. All Trans-Retinoic Acid helps in the improvement of glomerular maturation in kidney micro-organoids. Immunofluorescence analysis of C32 swirler organoids generated by swirler suspension culture. (A) Organoids generated without supplementation at atRA. […] (C) qPCR analysis of organoids generated with and without atRA at different time points (D7+11 and D7+18).
# To determine whether addition of all trans retinoic acid (atRA) would facilitate glomerular maturation of the organoids produced by the swirler culture method described in Examples 1-3, atRA was supplemented in the media after D7+0. All trans retinoic acid (2.5 μM) was added from D7+5 to D7+10 on C32 derived swirler organoids (FIG. 5).
# [4] = system: kidney micro-organoids at day 7+18; experiment: Drug toxicity testing in micro kidney organoids (TUNEL staining, RNA analysis); details: 0, 2.5 and 5 μg/ml for 24 hours
# Procedure: FIG. 8. Kidney micro-organoids provides a platform for drug toxicity screening.
# To evaluate the suitability of using the suspension culture method described herein to test for drug toxicity of kidneys in vitro, drug toxicity studies were conducted. Organoids produced by the method at day 7+18 were collected and randomized into treatment groups in a 24 well low attachment plates in 250 μl of media. Organoids were stimulated with different concentrations of cytotoxic drug Adriamycin (0, 2.5 and 5 μg/ml) for 24 hours. After stimulation, media was removed and organoids were fixed with 2% PFA for immunofluorescence staining analysis for apoptosis by using TUNEL staining and some organoids were lysed for RNA analysis (FIG. 8A-8D).
smiles,measurement,setting,value
Cc1c[nH]c(-c2cnc(NCCNc3ccc(C#N)cn3)nc2-c2ccc(Cl)cc2Cl)n1 [CHIR99021],"expression of PAX2, LHX1 and OSR1 (cap mesenchyme) compared to short CHIR exposure groups",[1],more than 2 folds
same,increase in expression of Wnt11 and GATA3 (ureteric epithelium) compared to short CHIR exposure groups,[1],more than 2 fold
same,kidney organoid structure after 18 days,[2]; 7 μM CHIR99021 for 4 or 5 days,generated kidney organoids containing patterning nephrons
same,kidney organoid structure after 18 days,[2]; 7 μM CHIR99021 for 3 days,failed to generate a kidney morphology
same,kidney organoid structure after 18 days,[2]; 7 μM CHIR99021 for 6 days,"generating larger kidney organoids with greater NPHS1 staining, contained an expanded MEIS1^+ stromal population apparently compromising epithelial structure"
"CC1=C(/C=C/C(C)=C/C=C/C(C)=C/C(=O)O)C(C)(C)CCC1 [atRA, all trans retinoic acid]",podocyte phenotype by immunofluorescence compared to control group,"[3]; 2.5 μM atRA from D7+5 to D7+10, analysis after D7+18",improved the podocyte phenotype; also recorded: improved glomerular podocyte maturation
same,mRNA expression of glomerular and proximal tubular markers (qPCR) compared to control,"[3]; 2.5 μM atRA, D7+11 and D7+18 samples",increased expression of glomerular markers such as NPHS1 and proximal tubular markers like CUBN
COc1cccc2c1C(=O)c1c(O)c3c(c(O)c1C2=O)C[C@@](O)(C(=O)CO)C[C@@H]3O[C@H]1C[C@H](N)[C@H](O)[C@H](C)O1 [Adriamycin],toxicity by expression of TUNEL apoptotic marker,[4],induces dose dependent toxicity
same,expression of kidney specific genes in micro-organoids,[4]; RNA analysis,reduces the expression of kidney specific genes
